From ChEMBL document CHEMBL5053510, “Discovery of AS-1763: A Potent, Selective, Noncovalent, and Orally Available Inhibitor of Bruton's Tyrosine Kinase” (J Med Chem, 2021)

Target: Tyrosine-protein kinase BTK (Homo sapiens, UniProt Q06187)
Assay: Inhibition of human BTK-A using phosphorylated substrate in presence of ATP by microplate reader assay

Chain of Tyrosine-protein kinase BTK (Q06187 whole entry): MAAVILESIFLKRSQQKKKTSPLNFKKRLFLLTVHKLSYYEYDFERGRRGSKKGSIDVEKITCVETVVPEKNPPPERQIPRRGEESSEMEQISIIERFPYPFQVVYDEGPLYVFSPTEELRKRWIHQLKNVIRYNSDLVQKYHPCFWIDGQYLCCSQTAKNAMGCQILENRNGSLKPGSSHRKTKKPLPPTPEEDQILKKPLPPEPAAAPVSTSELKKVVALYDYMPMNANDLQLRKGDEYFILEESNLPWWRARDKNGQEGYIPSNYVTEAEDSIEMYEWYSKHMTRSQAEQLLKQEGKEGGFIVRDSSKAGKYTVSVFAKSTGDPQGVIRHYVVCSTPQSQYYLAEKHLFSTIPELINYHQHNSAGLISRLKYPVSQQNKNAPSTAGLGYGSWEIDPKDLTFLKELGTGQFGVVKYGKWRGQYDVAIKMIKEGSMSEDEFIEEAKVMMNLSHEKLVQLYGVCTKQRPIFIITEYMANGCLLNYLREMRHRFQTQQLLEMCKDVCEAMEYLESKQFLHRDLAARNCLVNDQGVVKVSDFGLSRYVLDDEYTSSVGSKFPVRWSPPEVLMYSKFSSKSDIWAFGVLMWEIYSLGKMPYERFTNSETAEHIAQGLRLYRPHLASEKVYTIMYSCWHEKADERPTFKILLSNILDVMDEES

IC50 [nM]	Structure (SMILES)
0.54	CN(C)C(=O)N1CC=C(c2cc3c(-c4cccc(-n5ccc6cc(C7CC7)cc(F)c6c5=O)c4CO)nc(N)nc3[nH]2)CC1
0.14	Nc1nc(-c2cccc(-n3ccc4cc(C5CC5)cc(F)c4c3=O)c2CO)c2cc(-c3ccncc3)[nH]c2n1
